Test results: US8101761B2, “(E)-N-{3-[1-(8-fluoro-11H-10-OXA-1-AZA-dibenzo [A,D] cyclohepten-5ylidene)-propyl]-phenyl}-methanesulfonamide as glucocorticoid receptor modulator for the treatment of rheumatoid arthritis” (Eli Lilly and Company, priority 2008, dated 2012)

Key:
[1] = biological target: T1, human mineralocorticoid receptor (MR) (Homo sapiens, UniProt P08235); assay: Nuclear hormone receptor functional modulation assay (GRE-luciferase reporter, HEK293), MR; assay type: cell-based; settings: agonist mode, mean of n=4 or 5
T1 construct: expressed in transfected cells; host or cells: HEK293, transient transfection, CMV promoter plasmid
T1 sequence (P08235 1-984): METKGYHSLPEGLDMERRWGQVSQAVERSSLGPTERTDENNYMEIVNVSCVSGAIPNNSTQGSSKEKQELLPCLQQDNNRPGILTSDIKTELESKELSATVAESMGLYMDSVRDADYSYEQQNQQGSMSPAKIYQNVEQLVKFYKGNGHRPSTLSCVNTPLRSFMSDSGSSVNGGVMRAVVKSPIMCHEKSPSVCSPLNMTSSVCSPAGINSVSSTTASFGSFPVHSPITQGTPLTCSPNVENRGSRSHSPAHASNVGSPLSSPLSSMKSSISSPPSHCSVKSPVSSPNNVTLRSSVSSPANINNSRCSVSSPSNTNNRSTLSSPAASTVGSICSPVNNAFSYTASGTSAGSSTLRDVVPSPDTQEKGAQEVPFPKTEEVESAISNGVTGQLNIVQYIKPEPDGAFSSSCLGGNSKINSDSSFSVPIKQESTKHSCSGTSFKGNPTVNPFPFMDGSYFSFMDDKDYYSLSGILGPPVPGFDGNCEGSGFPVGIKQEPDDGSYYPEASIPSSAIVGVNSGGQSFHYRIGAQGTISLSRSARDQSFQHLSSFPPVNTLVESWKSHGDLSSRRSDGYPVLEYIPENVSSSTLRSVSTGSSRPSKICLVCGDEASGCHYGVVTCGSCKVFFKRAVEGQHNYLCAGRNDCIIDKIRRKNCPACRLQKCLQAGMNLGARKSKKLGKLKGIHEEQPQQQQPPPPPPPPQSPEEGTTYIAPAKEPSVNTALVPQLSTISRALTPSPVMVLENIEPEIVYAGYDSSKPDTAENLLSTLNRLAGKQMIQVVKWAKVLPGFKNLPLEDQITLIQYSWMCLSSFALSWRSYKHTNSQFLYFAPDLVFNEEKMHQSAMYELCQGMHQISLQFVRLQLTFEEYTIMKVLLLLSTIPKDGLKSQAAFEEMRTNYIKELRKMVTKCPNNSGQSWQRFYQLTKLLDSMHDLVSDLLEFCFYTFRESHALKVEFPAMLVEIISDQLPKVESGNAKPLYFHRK
From the text: (§1) The solvents, reagents, and ligands employed in the functional assay are readily available from commercial sources, or can be prepared by one of ordinary skill in the art.
(§2) Human embryonic kidney HEK293 cells are transfected with steroid hormone receptor and reporter gene plasmids using Fugene™ transfection reagent. Briefly, the reporter plasmid containing two copies of probasin ARE and TK(thymidine kinase) promoter upstream of the luciferase reporter cDNA, is transfected into HEK293 cells with a plasmid constitutively expressing human androgen receptor (AR) using viral CMV(cytomegalovirus) promoter. The reporter plasmid containing two copies of GRE and TK promoter upstream of the luciferase reporter cDNA is transfected with a plasmid constitutively expressing either human glucocorticoid receptor (GR), human mineralocorticoid receptor (MR), or human progesterone receptor (PR) using viral CMV promoter. […] After 24-hours incubation with test compounds, cells are lysed and luciferase activity is determined using standard techniques.
(§3) Data are fitted to a four parameter-fit logistic curve fit to determine EC50 values. […] IC50 values may be determined similarly using antagonist mode assay data. Percent inhibitions may also be determined relative to the response in the presence of agonist alone, as described above.

[2] = biological target: T2, human glucocorticoid receptor (GR) (Homo sapiens, UniProt P04150); assay: Nuclear hormone receptor functional modulation assay (GRE-luciferase reporter, HEK293), GR; assay type: cell-based; settings: agonist mode, mean of n=4 or 5
T2 construct: expressed in transfected cells; host or cells: HEK293, transient transfection, CMV promoter plasmid
T2 sequence (P04150 1-777): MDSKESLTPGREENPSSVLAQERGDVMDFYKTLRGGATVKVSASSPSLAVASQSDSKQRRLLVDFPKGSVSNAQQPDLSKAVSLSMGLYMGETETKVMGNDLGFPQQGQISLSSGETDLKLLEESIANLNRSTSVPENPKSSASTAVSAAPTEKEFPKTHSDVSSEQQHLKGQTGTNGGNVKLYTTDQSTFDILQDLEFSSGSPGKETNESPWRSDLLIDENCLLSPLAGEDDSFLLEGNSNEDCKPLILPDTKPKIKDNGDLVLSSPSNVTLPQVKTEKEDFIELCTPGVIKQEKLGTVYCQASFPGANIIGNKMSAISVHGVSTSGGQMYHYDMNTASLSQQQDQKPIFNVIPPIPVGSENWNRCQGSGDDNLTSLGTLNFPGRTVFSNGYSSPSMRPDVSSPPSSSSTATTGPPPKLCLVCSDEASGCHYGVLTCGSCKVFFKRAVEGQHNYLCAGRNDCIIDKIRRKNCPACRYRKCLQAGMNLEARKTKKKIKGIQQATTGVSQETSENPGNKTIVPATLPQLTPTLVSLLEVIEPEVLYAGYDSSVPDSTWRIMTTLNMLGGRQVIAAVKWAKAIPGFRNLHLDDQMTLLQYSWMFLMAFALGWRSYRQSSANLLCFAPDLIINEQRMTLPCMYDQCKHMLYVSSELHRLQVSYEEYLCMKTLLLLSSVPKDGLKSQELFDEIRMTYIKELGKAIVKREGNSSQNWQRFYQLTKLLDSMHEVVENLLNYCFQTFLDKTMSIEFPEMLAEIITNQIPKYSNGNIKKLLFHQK
From the text: as §1, §2, §3

With CC/C(=C1\c2ccc(F)cc2OCc2ncccc21)c1cccc(NS(C)(=O)=O)c1 [Compound (I), (E)-N-{3-[1-(8-Fluoro-11H-10-oxa-1-aza-dibenzo[a,d]cyclohepten-5-ylidene)-propyl]-phenyl}-methanesulfonamide] the “efficacy in activating transcription, MR” value ([1]; relative to 30 nM aldosterone) was “about 11%”, the EC50 ([1]; read-out: EC50 in activating transcription, MR) was over 10000 nM and the “efficacy in activating transcription, GR” value ([2]; relative to 100 nM dexamethasone) was “about 44%”. It also gave an EC50 ([2]; read-out: EC50 in activating transcription, GR) of about 1.8 nM.
